Results reported in the supplement of paper PMC11061612.

Assays:
[1] = test system: KLE (Endometrial Carcinoma); assay: combination Emax (second highest fraction inhibited in the dose matrix, 72 h); higher = more inhibition; extreme values may be limits of the assay
Outline: (§1)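 After 24 hours at 37°C and 5% CO2 in 1536-well plates, cells in DMEM/F12 or RPMI plus 10% FBS received two-drug dose matrices for 72 hours. Viability came from CellTiter-Glo 2.0 luminescence and was scaled as inhibition, anchored at 0 by vehicle wells and at 1 by blank wells. Combination Emax is taken as the second-highest inhibition in the matrix, and Bliss excess as the observed combination effect less EA + EB − EA·EB, with EA and EB the single-agent effects.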

U-87-MG (Glioblastoma) [2] = assay: as above
Outline: as §1

[3] = test system: NCI-H513 (Other Solid Carcinomas); assay: as above
Outline: as §1

GI-1 (Glioblastoma) = assay: as above
Outline: as §1

[4] = test system: EMC-BAC-2 (Non-Small Cell Lung Carcinoma); assay: as above
Outline: as §1

EW-13 (Ewing's Sarcoma) = assay: as above
Outline: as §1

[5] = test system: KINGS-1 (Low Grade Glioma); assay: as above
Outline: as §1

[6] = test system: PFSK-1 (Other Solid Carcinomas); assay: as above
Outline: as §1

IMR-5 (Neuroblastoma) = assay: as above
Outline: as §1

[7] = test system: KYSE-150 (Esophageal Squamous Cell Carcinoma); assay: as above
Outline: as §1

[8] = test system: KYSE-50 (Esophageal Squamous Cell Carcinoma); assay: as above
Outline: as §1

[9] = test system: OCUB-M (Breast Carcinoma); assay: as above
Outline: as §1

[10] = test system: EBC-1 (Squamous Cell Lung Carcinoma); assay: as above
Outline: as §1

U-87-MG (Glioblastoma) [11] = assay: Bliss excess, mean over the matrix (fraction); higher = more synergy
Outline: as §1

[12] = test system: NCI-H1573 (Lung Adenocarcinoma); assay: as above
Outline: as §1

[13] = test system: NCI-N87 (Gastric Carcinoma); assay: as above
Outline: as §1

[14] = test system: HuP-T3 (Pancreatic Carcinoma); assay: as above
Outline: as §1

[15] = test system: VMRC-LCD (Lung Adenocarcinoma); assay: as above
Outline: as §1

EW-3 (Ewing's Sarcoma) = assay: as above
Outline: as §1

[16] = test system: OCUB-M (Breast Carcinoma); assay: as above
Outline: as §1
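Wherever Bliss excess, mean over the matrix is given: after 72 h of two-drug dosing.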

Structure (SMILES) | combination Emax [1] | combination Emax (U-87-MG (Glioblastoma) [2]) | combination Emax [3] | combination Emax (GI-1 (Glioblastoma)) | combination Emax [4] | combination Emax (EW-13 (Ewing's Sarcoma)) | combination Emax [5] | combination Emax [6] | combination Emax (IMR-5 (Neuroblastoma)) | combination Emax [7] | combination Emax [8] | combination Emax [9] | combination Emax [10] | Bliss excess (U-87-MG (Glioblastoma) [11]) | Bliss excess [12] | Bliss excess [13] | Bliss excess [14] | Bliss excess [15] | Bliss excess (EW-3 (Ewing's Sarcoma)) | Bliss excess [16]
CN(CCO)CC[C@H](CSc1ccccc1)Nc1ccc(S(=O)(=O)NC(=O)c2ccc(N3CCC([C@@H](O)c4ccccc4-c4ccc(Cl)cc4)CC3)cc2)cc1S(=O)(=O)C(F)(F)F [AZD4320] + C1CN(CCC1(C(=O)N[C@@H](CCO)C2=CC=C(C=C2)Cl)N)C3=NC=NC4=C3C=CN4 [Capivasertib] (first compound max 1 µM, 7x7, partner max 3 µM) | 0.206 | 0.311 | 0.122 | 0.627 | 0.301 | 0.677 | 0.49 | 0.568 | 0.788 | 0.347 | 0.0686 | 1 | 0.935 | -0.045 | 0.0699 | -0.103 | -0.0678 | -0.0521 | -0.0687 | -0.0174
CN(CCO)CC[C@H](CSc1ccccc1)Nc1ccc(S(=O)(=O)NC(=O)c2ccc(N3CCC([C@@H](O)c4ccccc4-c4ccc(Cl)cc4)CC3)cc2)cc1S(=O)(=O)C(F)(F)F [AZD4320] + C=CCn1c(=O)c2cnc(Nc3ccc(N4CCN(C)CC4)cc3)nc2n1-c1cccc(C(C)(C)O)n1 [AZD1775] (first compound max 1 µM, partner max 1 µM) | 0.573 | 0.187 | 0.707 | 1 | 0.425 | 0.665 | 0.526 | 0.742 | 0.983 | 0.432 | 0.476 | 0.487 | 0.975 | -0.0637 | -0.0052 | 0.0086 | -0.0081 | -0.0459 | 0.11 | 0.075
CN(CCO)CC[C@H](CSc1ccccc1)Nc1ccc(S(=O)(=O)NC(=O)c2ccc(N3CCC([C@@H](O)c4ccccc4-c4ccc(Cl)cc4)CC3)cc2)cc1S(=O)(=O)C(F)(F)F [AZD4320] + CCN(CCO)CCCOc1ccc2c(Nc3cc(CC(=O)Nc4cccc(F)c4)[nH]n3)ncnc2c1 [AZD2811] (first compound max 1 µM, 7x7, partner max 1 µM) | 0.297 | 0.253 | 0.13 | 0.771 | 0.417 | 0.754 | 0.498 | 0.319 | 1 | 0.301 | 0.382 | 0.874 | 0.931 | -0.019 | -0.0135 | 0.0195 | -0.0384 | -0.0741 | 0.0814 | 0.0283
CN(CCO)CC[C@H](CSc1ccccc1)Nc1ccc(S(=O)(=O)NC(=O)c2ccc(N3CCC([C@@H](O)c4ccccc4-c4ccc(Cl)cc4)CC3)cc2)cc1S(=O)(=O)C(F)(F)F [AZD4320] + CN(C)CCCOc1ccc(-c2ccc3ncc4c(c3c2)n(C2CCOCC2)c(=O)n4C)cn1 [AZD0156] (first compound max 1 µM, 7x7, partner max 1 µM) | 0.266 | 0.165 | 0.143 | 0.342 | 0.185 | 0.636 | 0.588 | 0.375 | 0.608 | 0.206 | 0.0706 | 0.516 | 0.944 | -0.0331 | -0.0255 | -0.0474 | -0.0429 | -0.0542 | 0.0012 | 0.0044
CN(CCO)CC[C@H](CSc1ccccc1)Nc1ccc(S(=O)(=O)NC(=O)c2ccc(N3CCC([C@@H](O)c4ccccc4-c4ccc(Cl)cc4)CC3)cc2)cc1S(=O)(=O)C(F)(F)F [AZD4320] + C[C@@H]1COCCN1C2=NC(=NC(=C2)C3(CC3)[S@](=N)(=O)C)C4=C5C=CNC5=NC=C4 [AZD6738] (first compound max 1 µM, 7x7, partner max 10 µM) | 0.608 | 0.501 | 0.452 | 0.982 | 0.632 | 0.887 | 0.53 | 0.781 | 1 | 0.614 | 0.686 | 0.823 | 0.935 | -0.0248 | -0.0524 | -0.0456 | -0.0695 | -0.0764 | -0.0236 | 0.0055
CN(CCO)CC[C@H](CSc1ccccc1)Nc1ccc(S(=O)(=O)NC(=O)c2ccc(N3CCC([C@@H](O)c4ccccc4-c4ccc(Cl)cc4)CC3)cc2)cc1S(=O)(=O)C(F)(F)F [AZD4320] + C[C@@H](Nc1cc(F)cc(F)c1)c1cc(C(=O)N(C)C)cc2c(=O)cc(N3CCOCC3)oc12 [AZD8186] (first compound max 1 µM, 7x7, partner max 3 µM) | 0.61 | 0.527 | 0.342 | 0.813 | 0.383 | 0.911 | 0.629 | 0.471 | 1 | 0.298 | 0.283 | 0.835 | 0.972 | 0.0472 | -0.0545 | 0.0029 | 0.038 | -0.0206 | -0.0324 | 0.0137
CN(CCO)CC[C@H](CSc1ccccc1)Nc1ccc(S(=O)(=O)NC(=O)c2ccc(N3CCC([C@@H](O)c4ccccc4-c4ccc(Cl)cc4)CC3)cc2)cc1S(=O)(=O)C(F)(F)F [AZD4320] + Cc1cc2ncnn2cc1Nc1ncc2c(n1)n(C1CCOCC1)c(=O)n2C [AZD7648] (first compound max 1 µM, 7x7, partner max 10 µM) | 0.337 | 0.311 | 0.269 | 0.457 | 0.258 | 0.672 | 0.466 | 0.397 | 0.738 | 0.478 | 0.096 | 0.66 | 0.947 | -0.0503 | -0.0358 | -0.0695 | -0.0362 | -0.0595 | 0.015 | 0.0104
CN(CCO)CC[C@H](CSc1ccccc1)Nc1ccc(S(=O)(=O)NC(=O)c2ccc(N3CCC([C@@H](O)c4ccccc4-c4ccc(Cl)cc4)CC3)cc2)cc1S(=O)(=O)C(F)(F)F [AZD4320] + Cn1cnc2c(F)c(Nc3ccc(Br)cc3Cl)c(C(=O)NOCCO)cc21 [Selumetinib] (first compound max 1 µM, 7x7, partner max 3 µM) | 0.423 | 0.278 | 0.398 | 0.801 | 0.416 | 0.933 | 0.481 | 0.419 | 0.994 | 0.359 | 0.239 | 0.797 | 0.991 | -0.0117 | 0.0027 | 0.0201 | -0.0166 | 0.0277 | -0.0118 | 0.0206
COc1nnc2ccc(N3CCC(c4ccc(OCCN5CCN(C)C(=O)[C@H]5C)cc4)CC3)nn12 [AZD5153] + C=CCn1c(=O)c2cnc(Nc3ccc(N4CCN(C)CC4)cc3)nc2n1-c1cccc(C(C)(C)O)n1 [AZD1775] (first compound max 1 µM, partner max 1 µM) | 0.679 | 0.53 | 0.437 | 0.973 | 0.735 | 0.407 | 0.251 | 0.744 | 0.973 | 0.666 | 0.798 | 0.572 | 0.802 | -0.119 | -0.0197 | -0.0415 | -0.0521 | -0.0025 | -0.122 | -0.0224
COc1nnc2ccc(N3CCC(c4ccc(OCCN5CCN(C)C(=O)[C@H]5C)cc4)CC3)nn12 [AZD5153] + CC1(C)CCC(CN2CCN(c3ccc(C(=O)NS(=O)(=O)c4ccc(NCC5CCOCC5)c([N+](=O)[O-])c4)c(Oc4cnc5[nH]ccc5c4)c3)CC2)=C(c2ccc(Cl)cc2)C1 [Venetoclax] (first compound max 1 µM, 7x7, partner max 1 µM) | 0.609 | 0.546 | 0.358 | 0.763 | 0.661 | 0.481 | 0.159 | 0.595 | 0.885 | 0.627 | 0.501 | 0.39 | 0.802 | -0.0343 | -0.0885 | -0.0978 | -0.102 | -0.063 | -0.0801 | -0.0299
COc1nnc2ccc(N3CCC(c4ccc(OCCN5CCN(C)C(=O)[C@H]5C)cc4)CC3)nn12 [AZD5153] + CCN(CCO)CCCOc1ccc2c(Nc3cc(CC(=O)Nc4cccc(F)c4)[nH]n3)ncnc2c1 [AZD2811] (first compound max 1 µM, 7x7, partner max 1 µM) | 0.674 | 0.603 | 0.375 | 0.873 | 0.738 | 0.362 | 0.193 | 0.574 | 1 | 0.688 | 0.651 | 0.69 | 0.764 | 0.0005 | -0.0621 | -0.0589 | -0.0306 | 0.0435 | -0.115 | -0.133
COc1nnc2ccc(N3CCC(c4ccc(OCCN5CCN(C)C(=O)[C@H]5C)cc4)CC3)nn12 [AZD5153] + C[C@@H]1COCCN1C2=NC(=NC(=C2)C3(CC3)[S@](=N)(=O)C)C4=C5C=CNC5=NC=C4 [AZD6738] (first compound max 1 µM, 7x7, partner max 10 µM) | 0.737 | 0.698 | 0.523 | 0.97 | 0.816 | 0.831 | 0.281 | 0.648 | 1 | 0.746 | 0.804 | 0.735 | 0.798 | 0.0506 | 0.0531 | -0.0135 | -0.0119 | 0.0235 | -0.0647 | 0.0415
